Key:
Format in all cases: in vivo
ICR mice [1] = experiment: Sleep latency experiment (pentobarbital sodium); conditions: mice gavaged 14 days (250 mg/kg samples; GABA 100 mg/kg); pentobarbital sodium 200 mg/kg BW i.p.; *p<0.05 vs blank group
Excerpt: (§1) • 1. Principle: a pentobarbital sodium subthreshold dose hypnosis test, a sleep latency test and a sleep extension time change test are common test methods for a sleep improvement performance of a health-care food. The method takes a disappearance of a righting reflex as an observation index and is specifically represented as follows: when a mouse is placed on the back to lie, if the mouse cannot turn over for more than 60 s, the righting reflex is considered to disappear, and the mouse falls sleep; if a body position can be righted immediately (within 5 s), the righting reflex is considered to be recovered and the mouse is in a waking state; and a time from the disappearance of the righting reflex to the recovery is an animal sleeping time. • 2. Materials: ICR mice come from the Experimental Animal Center of Zhejiang Academy of Medical Sciences and have the production license number of SCXK (Zhe). The mice are all male, weigh 18 to 22 g and are divided into 10 mice/group. The mice are adapted to the environment in an SPF animal room for 5 to 7 days, wherein environment conditions of the SPF animal room are as follows: a temperature of 20 to 26° C., a humidity of 40% to 70%, and light and shade alternation time of 12 h/12 h. • 3. […]

ICR mice [2] = experiment: Pentobarbital sodium subthreshold dose hypnosis test; conditions: mice gavaged 14 days (250 mg/kg samples; GABA 100 mg/kg); pentobarbital sodium 30 mg/kg BW i.p.; animals asleep within 30 min; *p<0.05, **p<0.01 vs blank group
Excerpt: as §1

ICR mice [3] = experiment: Sleep extension time change experiment (pentobarbital sodium); conditions: mice gavaged 14 days (250 mg/kg samples; GABA 100 mg/kg); pentobarbital sodium 30 mg/kg BW i.p.; *p<0.05, **p<0.01 vs blank group
Excerpt: as §1

NCCCC(=O)O [Positive control, y-aminobutyric acid]
Sleep latency x ± s (ICR mice [1]): 5.60 ± 1.48* min
Sleeping rate (ICR mice [2]): 90.00** %
Sleeping time x ± s (ICR mice [3]): 92.36 ± 16.67** min

Reference: patent US20240197805A1, “COMPOSITE FOR RELIEVING […], PREPARATION METHOD THEREFOR, USE THEREOF, DRUG, FOOD AND HEALTH-CARE PRODUCT” (INFINITUS ( CHINA ) COMPANY LTD., priority 2022, published 2024)
